Test results published in ChEMBL document CHEMBL4507268 (2021).

Experiments:
[1] = target: Serine/threonine-protein kinase N1 (Homo sapiens) (UniProt Q16512); settings: Compound concentration 1000.0 nM
[2] = target: Tyrosine-protein kinase FRK (Homo sapiens) (UniProt P42685); settings: Compound concentration 1000.0 nM
[3] = target: BMP-2-inducible protein kinase (Homo sapiens) (UniProt Q9NSY1); settings: Compound concentration 1000.0 nM
[4] = target: Phosphatidylinositol 5-phosphate 4-kinase type-2 beta (Homo sapiens) (UniProt P78356); settings: Compound concentration 1000.0 nM
[5] = system: Phosphatidylinositol 4,5-bisphosphate 3-kinase catalytic subunit alpha isoform (Homo sapiens), P42336 [E545A]; settings: Compound concentration 1000.0 nM
Sequence of Phosphatidylinositol 4,5-bisphosphate 3-kinase catalytic subunit alpha isoform (Homo sapiens), P42336 [E545A] (P42336 whole entry E545A, canonical isoform): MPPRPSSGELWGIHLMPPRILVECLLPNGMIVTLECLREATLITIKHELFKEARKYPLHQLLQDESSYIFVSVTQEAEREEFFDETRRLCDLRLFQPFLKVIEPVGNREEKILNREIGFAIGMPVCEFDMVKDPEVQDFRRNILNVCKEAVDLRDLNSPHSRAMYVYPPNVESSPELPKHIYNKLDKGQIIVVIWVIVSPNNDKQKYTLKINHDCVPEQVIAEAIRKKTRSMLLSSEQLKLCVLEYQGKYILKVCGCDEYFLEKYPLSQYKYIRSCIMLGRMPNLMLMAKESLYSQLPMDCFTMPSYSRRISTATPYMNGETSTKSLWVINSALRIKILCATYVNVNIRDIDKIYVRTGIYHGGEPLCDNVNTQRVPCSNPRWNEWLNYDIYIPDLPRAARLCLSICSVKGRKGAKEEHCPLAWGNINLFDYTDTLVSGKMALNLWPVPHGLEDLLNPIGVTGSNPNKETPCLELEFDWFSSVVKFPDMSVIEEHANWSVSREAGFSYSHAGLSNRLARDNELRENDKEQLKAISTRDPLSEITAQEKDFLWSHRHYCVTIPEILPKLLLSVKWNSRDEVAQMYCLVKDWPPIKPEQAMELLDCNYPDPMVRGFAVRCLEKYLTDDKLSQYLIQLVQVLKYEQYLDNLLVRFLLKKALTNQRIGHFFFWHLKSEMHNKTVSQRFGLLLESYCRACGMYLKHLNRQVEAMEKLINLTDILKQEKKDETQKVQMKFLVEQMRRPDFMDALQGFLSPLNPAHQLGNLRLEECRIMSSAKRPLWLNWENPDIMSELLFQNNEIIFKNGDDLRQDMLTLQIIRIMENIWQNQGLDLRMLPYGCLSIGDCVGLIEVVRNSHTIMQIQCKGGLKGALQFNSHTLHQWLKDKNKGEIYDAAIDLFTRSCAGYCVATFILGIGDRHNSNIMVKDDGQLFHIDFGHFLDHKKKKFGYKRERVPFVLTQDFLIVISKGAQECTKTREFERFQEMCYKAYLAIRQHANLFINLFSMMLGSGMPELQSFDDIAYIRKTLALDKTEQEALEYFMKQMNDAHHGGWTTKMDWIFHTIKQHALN

[6] = target: Sigma non-opioid intracellular receptor 1 (Homo sapiens, UniProt Q99720); experiment: GPCRScan assay: inhibition of Sigma 1; set-up: radioligand conc. used [nm] 4.0 – 5.0, parental cells HEKT
Sequence of Sigma non-opioid intracellular receptor 1 (Q99720 whole entry): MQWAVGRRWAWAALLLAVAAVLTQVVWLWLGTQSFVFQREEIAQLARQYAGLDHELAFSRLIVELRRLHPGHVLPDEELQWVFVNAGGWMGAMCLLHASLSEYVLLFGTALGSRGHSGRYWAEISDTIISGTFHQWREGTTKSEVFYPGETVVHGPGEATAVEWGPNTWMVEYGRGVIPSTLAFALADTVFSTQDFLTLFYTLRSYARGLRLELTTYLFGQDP

[7] = target: T1, Tyrosine-protein kinase JAK3 (Homo sapiens) (UniProt P52333); settings: Compound concentration 1000.0 nM
T1 sequence (whole entry): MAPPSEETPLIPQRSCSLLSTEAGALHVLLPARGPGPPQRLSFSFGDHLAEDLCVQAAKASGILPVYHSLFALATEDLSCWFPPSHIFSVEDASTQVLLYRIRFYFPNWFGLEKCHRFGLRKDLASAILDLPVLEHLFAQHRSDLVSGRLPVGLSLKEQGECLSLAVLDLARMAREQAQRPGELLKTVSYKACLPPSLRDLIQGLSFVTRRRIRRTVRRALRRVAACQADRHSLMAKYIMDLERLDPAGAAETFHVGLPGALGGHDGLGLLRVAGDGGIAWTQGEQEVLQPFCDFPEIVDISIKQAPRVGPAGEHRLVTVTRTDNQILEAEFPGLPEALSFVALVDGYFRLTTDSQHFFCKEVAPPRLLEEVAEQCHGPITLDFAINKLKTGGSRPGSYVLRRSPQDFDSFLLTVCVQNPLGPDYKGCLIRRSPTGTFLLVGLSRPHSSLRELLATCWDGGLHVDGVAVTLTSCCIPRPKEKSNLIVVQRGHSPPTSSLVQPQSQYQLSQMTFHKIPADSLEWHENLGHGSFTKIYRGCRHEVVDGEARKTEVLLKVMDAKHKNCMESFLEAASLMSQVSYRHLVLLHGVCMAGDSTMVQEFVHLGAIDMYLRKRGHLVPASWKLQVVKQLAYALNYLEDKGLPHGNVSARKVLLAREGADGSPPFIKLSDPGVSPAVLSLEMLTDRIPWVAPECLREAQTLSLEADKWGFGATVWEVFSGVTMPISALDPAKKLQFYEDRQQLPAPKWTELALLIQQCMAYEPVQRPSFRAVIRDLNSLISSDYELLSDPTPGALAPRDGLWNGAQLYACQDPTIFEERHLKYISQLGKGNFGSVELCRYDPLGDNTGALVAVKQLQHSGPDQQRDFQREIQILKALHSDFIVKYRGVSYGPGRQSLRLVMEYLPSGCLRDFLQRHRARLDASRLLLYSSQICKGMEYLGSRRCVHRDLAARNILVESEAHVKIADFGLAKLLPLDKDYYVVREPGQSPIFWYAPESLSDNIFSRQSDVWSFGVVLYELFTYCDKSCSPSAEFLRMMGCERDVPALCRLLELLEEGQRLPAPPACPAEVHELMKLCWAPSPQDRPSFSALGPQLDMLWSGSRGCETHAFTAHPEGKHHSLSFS

[8] = target: Dual specificity mitogen-activated protein kinase kinase 4 (Homo sapiens) (UniProt P45985); settings: Compound concentration 1000.0 nM
[9] = target: Casein kinase II subunit alpha' (Homo sapiens) (UniProt P19784); settings: Compound concentration 1000.0 nM
[10] = target: T2, Serine/threonine-protein kinase 17B (Homo sapiens) (UniProt O94768); settings: Compound concentration 1000.0 nM
T2 sequence (whole entry): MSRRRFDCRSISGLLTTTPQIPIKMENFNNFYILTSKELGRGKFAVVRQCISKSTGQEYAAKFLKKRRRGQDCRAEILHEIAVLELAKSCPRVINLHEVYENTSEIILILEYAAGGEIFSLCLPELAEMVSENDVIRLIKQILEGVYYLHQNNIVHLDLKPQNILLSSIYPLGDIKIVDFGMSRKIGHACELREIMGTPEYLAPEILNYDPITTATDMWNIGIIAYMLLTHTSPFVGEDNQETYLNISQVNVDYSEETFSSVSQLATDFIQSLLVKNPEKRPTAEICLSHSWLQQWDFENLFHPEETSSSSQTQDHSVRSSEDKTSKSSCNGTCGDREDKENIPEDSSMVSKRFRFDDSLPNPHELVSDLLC

[11] = target: Calcium/calmodulin-dependent protein kinase type II subunit beta (Homo sapiens) (UniProt Q13554); settings: Compound concentration 1000.0 nM
Sequence of Calcium/calmodulin-dependent protein kinase type II subunit beta (Homo sapiens) (Q13554 whole entry): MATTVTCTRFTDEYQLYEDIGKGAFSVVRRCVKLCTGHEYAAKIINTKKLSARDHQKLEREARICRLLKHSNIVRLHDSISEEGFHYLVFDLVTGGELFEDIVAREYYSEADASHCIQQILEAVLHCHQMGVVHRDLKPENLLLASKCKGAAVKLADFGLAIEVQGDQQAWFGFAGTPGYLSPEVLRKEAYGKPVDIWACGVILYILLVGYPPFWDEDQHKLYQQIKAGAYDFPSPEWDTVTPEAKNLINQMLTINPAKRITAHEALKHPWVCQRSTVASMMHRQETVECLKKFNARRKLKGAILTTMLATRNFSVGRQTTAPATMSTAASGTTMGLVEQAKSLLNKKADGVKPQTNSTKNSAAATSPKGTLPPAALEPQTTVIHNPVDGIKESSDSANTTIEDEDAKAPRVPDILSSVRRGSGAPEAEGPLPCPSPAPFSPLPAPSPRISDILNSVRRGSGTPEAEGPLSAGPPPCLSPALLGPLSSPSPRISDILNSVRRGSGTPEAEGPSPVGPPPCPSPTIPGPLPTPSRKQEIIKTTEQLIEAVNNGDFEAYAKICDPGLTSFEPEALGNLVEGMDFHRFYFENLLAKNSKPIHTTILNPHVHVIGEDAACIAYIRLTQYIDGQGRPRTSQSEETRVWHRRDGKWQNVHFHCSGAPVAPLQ

[12] = target: Serine/threonine-protein kinase SBK1 (Homo sapiens) (UniProt Q52WX2); settings: Compound concentration 1000.0 nM
[13] = target: 5-hydroxytryptamine receptor 5A (Homo sapiens) (UniProt P47898); settings: Compound concentration 10.0 uM
Sequence of 5-hydroxytryptamine receptor 5A (Homo sapiens) (P47898 whole entry): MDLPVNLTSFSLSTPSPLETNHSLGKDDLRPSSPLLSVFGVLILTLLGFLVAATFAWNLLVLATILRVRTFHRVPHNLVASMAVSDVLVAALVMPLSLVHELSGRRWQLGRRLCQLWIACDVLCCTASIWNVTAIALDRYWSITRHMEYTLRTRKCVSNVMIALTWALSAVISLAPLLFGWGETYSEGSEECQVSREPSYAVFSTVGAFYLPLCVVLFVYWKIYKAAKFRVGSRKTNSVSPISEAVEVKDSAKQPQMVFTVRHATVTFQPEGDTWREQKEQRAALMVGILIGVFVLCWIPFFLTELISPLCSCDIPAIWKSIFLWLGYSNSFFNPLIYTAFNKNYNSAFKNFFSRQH

[14] = target: Receptor-type tyrosine-protein kinase FLT3 (Homo sapiens) (UniProt P36888); settings: Compound concentration 1000.0 nM
[15] = target: Serine/threonine-protein kinase 26 (Homo sapiens) (UniProt Q9P289); settings: Compound concentration 1000.0 nM
[16] = target: Phosphorylase b kinase gamma catalytic chain, skeletal muscle/heart isoform (Homo sapiens) (UniProt Q16816); settings: Compound concentration 1000.0 nM
Sequence of Phosphorylase b kinase gamma catalytic chain, skeletal muscle/heart isoform (Homo sapiens) (Q16816 whole entry, looked up, canonical isoform): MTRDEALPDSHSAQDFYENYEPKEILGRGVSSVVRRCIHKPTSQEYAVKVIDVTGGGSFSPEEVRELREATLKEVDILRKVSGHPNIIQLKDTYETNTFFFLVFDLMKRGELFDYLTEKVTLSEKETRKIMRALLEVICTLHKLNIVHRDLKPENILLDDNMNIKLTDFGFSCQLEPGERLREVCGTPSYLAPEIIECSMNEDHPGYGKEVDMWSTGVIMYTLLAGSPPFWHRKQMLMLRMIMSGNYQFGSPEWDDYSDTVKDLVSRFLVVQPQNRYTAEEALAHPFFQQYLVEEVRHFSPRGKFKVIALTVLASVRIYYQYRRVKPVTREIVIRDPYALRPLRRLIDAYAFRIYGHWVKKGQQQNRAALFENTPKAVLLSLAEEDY

[17] = target: Serine/threonine-protein kinase Nek5 (Homo sapiens) (UniProt Q6P3R8); settings: Compound concentration 1000.0 nM
Sequence of Serine/threonine-protein kinase Nek5 (Homo sapiens) (Q6P3R8 whole entry): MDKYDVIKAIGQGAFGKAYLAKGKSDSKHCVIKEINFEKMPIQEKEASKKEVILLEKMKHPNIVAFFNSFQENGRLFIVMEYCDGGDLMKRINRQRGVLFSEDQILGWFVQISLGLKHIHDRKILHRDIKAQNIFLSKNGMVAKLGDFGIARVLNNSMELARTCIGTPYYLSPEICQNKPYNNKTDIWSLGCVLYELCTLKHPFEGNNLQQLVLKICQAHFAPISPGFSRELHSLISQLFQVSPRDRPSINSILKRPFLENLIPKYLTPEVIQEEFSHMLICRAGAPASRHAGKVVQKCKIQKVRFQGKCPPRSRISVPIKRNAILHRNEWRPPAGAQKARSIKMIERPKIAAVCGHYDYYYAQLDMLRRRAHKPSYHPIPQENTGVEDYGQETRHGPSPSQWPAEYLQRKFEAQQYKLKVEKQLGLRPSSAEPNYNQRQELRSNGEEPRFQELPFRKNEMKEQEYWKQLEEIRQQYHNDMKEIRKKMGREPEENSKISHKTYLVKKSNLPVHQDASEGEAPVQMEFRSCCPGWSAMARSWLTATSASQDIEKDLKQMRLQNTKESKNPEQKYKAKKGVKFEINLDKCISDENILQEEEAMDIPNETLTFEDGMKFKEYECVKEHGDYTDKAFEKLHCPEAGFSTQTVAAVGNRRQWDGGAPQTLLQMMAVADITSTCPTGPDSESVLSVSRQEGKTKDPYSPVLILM

[18] = target: cAMP-dependent protein kinase catalytic subunit beta (Homo sapiens) (UniProt P22694); settings: Compound concentration 1000.0 nM
[19] = target: Phosphatidylinositol 4-phosphate 3-kinase C2 domain-containing subunit beta (Homo sapiens) (UniProt O00750); settings: Compound concentration 1000.0 nM
[20] = target: Mitogen-activated protein kinase 15 (Homo sapiens) (UniProt Q8TD08); settings: Compound concentration 1000.0 nM
[21] = target: Serine/threonine-protein kinase RIO3 (Homo sapiens) (UniProt O14730); settings: Compound concentration 1000.0 nM
Sequence of Serine/threonine-protein kinase RIO3 (Homo sapiens) (O14730 whole entry): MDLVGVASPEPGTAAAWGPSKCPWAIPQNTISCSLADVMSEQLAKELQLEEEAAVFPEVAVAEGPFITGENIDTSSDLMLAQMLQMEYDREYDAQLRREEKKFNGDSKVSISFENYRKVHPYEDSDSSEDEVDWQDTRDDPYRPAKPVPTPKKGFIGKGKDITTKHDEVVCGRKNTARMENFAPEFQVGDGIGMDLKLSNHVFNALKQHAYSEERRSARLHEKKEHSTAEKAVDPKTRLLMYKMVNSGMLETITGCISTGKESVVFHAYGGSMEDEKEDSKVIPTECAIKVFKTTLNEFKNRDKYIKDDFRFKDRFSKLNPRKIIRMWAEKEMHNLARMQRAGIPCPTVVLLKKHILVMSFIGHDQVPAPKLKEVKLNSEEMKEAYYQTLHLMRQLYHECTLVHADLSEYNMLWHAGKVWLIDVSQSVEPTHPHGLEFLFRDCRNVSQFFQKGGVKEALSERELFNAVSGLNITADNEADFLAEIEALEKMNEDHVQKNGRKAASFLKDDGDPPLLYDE

Sequence of Serine/threonine-protein kinase N1 (Homo sapiens) (Q16512 2-942 limits assumed): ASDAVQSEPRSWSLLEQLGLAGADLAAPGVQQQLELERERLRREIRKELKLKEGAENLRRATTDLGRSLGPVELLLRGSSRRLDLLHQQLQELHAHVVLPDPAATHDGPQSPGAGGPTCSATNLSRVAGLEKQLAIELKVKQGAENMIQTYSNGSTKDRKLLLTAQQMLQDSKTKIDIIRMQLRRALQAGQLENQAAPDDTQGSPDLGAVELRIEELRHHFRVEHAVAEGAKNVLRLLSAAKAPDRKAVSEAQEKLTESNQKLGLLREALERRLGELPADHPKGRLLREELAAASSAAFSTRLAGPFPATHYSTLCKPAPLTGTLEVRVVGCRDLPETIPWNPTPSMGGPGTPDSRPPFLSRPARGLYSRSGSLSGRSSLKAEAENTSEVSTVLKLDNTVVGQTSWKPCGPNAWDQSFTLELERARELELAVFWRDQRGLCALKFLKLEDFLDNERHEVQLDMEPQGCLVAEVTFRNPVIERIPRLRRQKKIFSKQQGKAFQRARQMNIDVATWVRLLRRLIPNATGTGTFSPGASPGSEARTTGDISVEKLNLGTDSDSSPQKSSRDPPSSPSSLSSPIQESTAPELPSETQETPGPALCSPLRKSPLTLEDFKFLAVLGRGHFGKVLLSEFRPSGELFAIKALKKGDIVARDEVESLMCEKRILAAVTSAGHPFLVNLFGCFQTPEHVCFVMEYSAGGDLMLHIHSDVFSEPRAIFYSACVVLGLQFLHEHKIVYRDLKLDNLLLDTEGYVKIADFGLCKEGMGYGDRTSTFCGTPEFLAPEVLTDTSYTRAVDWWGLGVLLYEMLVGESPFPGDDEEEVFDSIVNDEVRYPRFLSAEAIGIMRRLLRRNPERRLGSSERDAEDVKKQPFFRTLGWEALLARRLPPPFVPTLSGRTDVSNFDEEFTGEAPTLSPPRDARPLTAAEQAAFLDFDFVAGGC

`Cc1nc(C2CCN(C(=O)c3ccc(OC(F)(F)F)cc3N)CC2)c2ncc(N3CCN(C)CC3)cc2n1` [BAY-693] was tested, and the residual activity [1] was 100%, the residual activity [2] was 95% and the residual activity [3] was 100%. For the same compound, the residual activity [4] was 78%, the residual activity [5] was 79% and the Ki [6] was 2370 nM. The residual activity [7] was 100%, the residual activity [8] was 100% and the residual activity [9] was 85%. For the same compound, the residual activity [10] was 99%, the residual activity [11] was 100% and the residual activity [12] was 40%. It also gave an inhibition [13] of -3.74%, a residual activity [14] of 83% and a residual activity [15] of 100%. The residual activity [16] was 100%, the residual activity [17] was 100% and the residual activity [18] was 100%. It also gave a residual activity [19] of 86%, a residual activity [20] of 100% and a residual activity [21] of 87%.

Work on `CN1CCN(c2cnc3c(C4CCN(C(=O)c5ccc(OC(F)(F)F)cc5N)CC4)ncnc3c2)CC1` [BAY-885] yielded a residual activity [1] of 100%, a residual activity [2] of 100% and a residual activity [3] of 97%. The residual activity [4] was 79%, the residual activity [5] was 89% and the Ki [6] was 2500 nM. The residual activity [7] was 100%, the residual activity [8] was 100% and the residual activity [9] was 93%. It also gave a residual activity [10] of 86%, a residual activity [11] of 100% and a residual activity [12] of 100%. It also gave an inhibition [13] of -1.47%, a residual activity [14] of 100% and a residual activity [15] of 98%. For the same compound, the residual activity [16] was 100%, the residual activity [17] was 100% and the residual activity [18] was 91%. It also gave a residual activity [19] of 98%, a residual activity [20] of 100% and a residual activity [21] of 97%.
